Measurements: patent publication EP4600243A2, “NOVEL BICYCLIC HETEROCYCLYL COMPOUNDS AND USE THEREOF” (Jeil Pharmaceutical Co., Ltd., priority 2022, dated 2024)

Assays:
[1] = target: T1, protein-protein interaction between SOS1 and KRAS G12C (Homo sapiens, UniProt Q07889); assay: KRAS::SOS1 HTRF binding analysis (KRAS G12C/SOS1 binding kit); conditions: compound at 0.1 uM
T1 construct: purchased Cisbio 64KRASG12PEG
T1 sequence (Q07889 1-1333): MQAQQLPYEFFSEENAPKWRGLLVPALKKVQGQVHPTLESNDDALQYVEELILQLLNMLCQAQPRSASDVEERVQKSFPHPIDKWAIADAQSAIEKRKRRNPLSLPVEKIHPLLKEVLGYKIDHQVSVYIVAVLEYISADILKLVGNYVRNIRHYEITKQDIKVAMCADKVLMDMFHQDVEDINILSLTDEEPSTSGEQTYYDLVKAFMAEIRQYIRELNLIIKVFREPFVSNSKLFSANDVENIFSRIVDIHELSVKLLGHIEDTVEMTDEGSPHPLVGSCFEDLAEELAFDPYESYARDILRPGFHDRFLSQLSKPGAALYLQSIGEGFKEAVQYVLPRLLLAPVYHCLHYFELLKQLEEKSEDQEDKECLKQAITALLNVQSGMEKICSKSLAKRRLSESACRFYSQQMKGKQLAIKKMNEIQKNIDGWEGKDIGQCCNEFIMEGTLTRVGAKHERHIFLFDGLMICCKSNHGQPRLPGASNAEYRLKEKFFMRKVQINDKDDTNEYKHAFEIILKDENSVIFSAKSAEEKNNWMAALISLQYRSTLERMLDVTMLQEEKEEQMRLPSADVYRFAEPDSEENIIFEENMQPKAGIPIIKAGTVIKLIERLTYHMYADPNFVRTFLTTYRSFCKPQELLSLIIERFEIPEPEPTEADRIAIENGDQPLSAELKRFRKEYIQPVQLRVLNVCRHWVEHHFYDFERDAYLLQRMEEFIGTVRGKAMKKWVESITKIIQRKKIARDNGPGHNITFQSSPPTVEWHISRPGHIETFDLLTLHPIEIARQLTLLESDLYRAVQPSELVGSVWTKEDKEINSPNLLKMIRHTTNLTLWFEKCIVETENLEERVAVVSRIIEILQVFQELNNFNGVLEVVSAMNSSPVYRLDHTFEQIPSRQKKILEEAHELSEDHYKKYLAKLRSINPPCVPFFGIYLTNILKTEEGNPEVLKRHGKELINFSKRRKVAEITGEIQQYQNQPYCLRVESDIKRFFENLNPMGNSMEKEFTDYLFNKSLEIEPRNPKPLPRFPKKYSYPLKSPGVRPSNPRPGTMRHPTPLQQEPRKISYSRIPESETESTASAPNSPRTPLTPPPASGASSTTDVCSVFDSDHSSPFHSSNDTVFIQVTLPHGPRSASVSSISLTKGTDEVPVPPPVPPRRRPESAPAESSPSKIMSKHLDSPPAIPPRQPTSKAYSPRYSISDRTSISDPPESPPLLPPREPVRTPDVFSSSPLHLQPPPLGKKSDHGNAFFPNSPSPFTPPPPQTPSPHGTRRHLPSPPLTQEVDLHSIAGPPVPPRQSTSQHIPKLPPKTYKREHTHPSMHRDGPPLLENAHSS
Experimental: 1-1. KRAS::SOS1 HTRF binding analysis
An SOS1 inhibitory ability of the example compounds of the present invention was confirmed by identifying the effect of inhibiting a protein-protein interaction between SOS1 and KRAS G12C of the compounds according to examples of the present invention.
Specifically, a KRAS G12C/SOS1 binding kit (64KRASG12PEG, Cisbio, France) was purchased and used. 2 µℓ of Tag1-KRAS G12C and 2 µℓ of GTP were premixed and dispensed 4 µl each into a 384 well plate (6007290, PerkinElmer, USA). 2 µℓ of the compound and 4 µℓ of Tag2-SOS1 were placed and then 10 µℓ of premixed Anti-Tag1 XL665 antibody and Anti-Tag2 Tb cryptate antibody was dispensed to each well. The plates were sealed and allowed to react at room temperature for one hour and 40 minutes, and then 665 nm wavelength and 620 nm wavelength were measured using a HTRF® compatible reader (Synergy H4, BioTeK, USA), and the ratio of receptor and donor emission signals for each well was calculated as 665 nm/620 nm×10^4.
(+++: more than 70 to 100% inhibition, ++: more than 40 to 70% inhibition, +: 0 to 40% inhibition) [Table 4]

EGFR kinase = target: T2, EGFR kinase (Homo sapiens, UniProt P00533); assay: EGFR kinase inhibitory analysis (ADP-Glo enzyme analysis system); assay type: biochemical; conditions: ADP-Glo luminescence
T2 construct: purchased Promega Corporation V3831
T2 sequence (P00533 25-1210): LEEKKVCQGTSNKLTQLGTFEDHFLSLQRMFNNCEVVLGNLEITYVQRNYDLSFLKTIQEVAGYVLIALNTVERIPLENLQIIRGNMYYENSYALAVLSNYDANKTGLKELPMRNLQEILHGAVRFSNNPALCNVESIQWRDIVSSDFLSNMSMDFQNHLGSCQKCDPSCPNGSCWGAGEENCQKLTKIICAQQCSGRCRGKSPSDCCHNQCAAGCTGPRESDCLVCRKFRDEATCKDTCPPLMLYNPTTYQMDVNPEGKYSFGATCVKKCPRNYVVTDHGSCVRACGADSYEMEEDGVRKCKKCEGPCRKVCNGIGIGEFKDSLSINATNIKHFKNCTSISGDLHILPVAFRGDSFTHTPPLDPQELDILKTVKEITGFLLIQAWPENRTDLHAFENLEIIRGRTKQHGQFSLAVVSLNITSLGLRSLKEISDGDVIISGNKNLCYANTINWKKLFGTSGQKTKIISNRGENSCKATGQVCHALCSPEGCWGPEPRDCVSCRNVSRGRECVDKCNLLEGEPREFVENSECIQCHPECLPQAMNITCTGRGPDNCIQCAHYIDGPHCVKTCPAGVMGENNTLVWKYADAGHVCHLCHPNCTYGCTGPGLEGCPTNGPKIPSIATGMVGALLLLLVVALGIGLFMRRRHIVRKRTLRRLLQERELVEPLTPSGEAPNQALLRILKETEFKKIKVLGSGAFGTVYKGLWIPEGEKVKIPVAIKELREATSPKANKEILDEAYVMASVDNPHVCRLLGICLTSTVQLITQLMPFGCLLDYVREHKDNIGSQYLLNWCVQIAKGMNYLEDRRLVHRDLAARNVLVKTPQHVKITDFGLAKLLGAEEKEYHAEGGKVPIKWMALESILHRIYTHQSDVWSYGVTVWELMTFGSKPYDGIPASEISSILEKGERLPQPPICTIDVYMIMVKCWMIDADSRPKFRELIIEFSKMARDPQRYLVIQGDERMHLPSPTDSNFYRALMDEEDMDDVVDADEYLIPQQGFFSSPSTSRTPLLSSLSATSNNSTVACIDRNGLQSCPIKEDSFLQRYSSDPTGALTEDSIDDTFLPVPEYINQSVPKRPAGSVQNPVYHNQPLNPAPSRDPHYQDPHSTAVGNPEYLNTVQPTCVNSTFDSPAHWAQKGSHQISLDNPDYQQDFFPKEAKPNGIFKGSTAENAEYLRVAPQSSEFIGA
Experimental: 1-2. EGFR kinase inhibitory analysis
Specifically, an ADP-Glo™ enzyme analysis system (V3831, Promega Corporation, USA) was purchased and used. […] The ADP-Glo™ reagent was added in an amount of 5 µℓ per well and allowed to react at room temperature for 40 minutes to stop the EGFR kinase reaction and to remove unused ATP. 10 µℓ of kinase detection reagent (phosphorylase detection reagent) was added and reacted at room temperature for 30 minutes to convert ADP to ATP and show ATP using luciferase and luciferin. Detection was performed using luminescence of an ELISA reader (Synergy H4, BioTek, USA).

Compound | inhibition at 0.1 µM [1] | IC50 (EGFR kinase)
C[C@@H](Nc1cnnc2ccc(C3=CCNCC3)cc12)c1cccc(C(F)F)c1F [Example 2, (R)-N-(1-(3-(difluoromethyl)-2-fluorophenyl)ethyl)-6-(1,2,3,6-tetrahydropyridin-4-yl)cinnolin-4-amine] | 40 to 70% | > 10 µM
C[C@@H](Nc1cnnc2ccc(N3CCN(C)CC3)cc12)c1cccc(C(F)F)c1F [Example 5, (R)-N-(1-(3-(difluoromethyl)-2-fluorophenyl)ethyl)-6-(4-methylpiperazin-1-yl)cinnolin-4-amine] | 40 to 70% | > 10 µM
C[C@@H](Nc1cnnc2ccc(N3CC4CC(C3)O4)cc12)c1cc(O)cc(C(F)F)c1 [Example 55, 3-((1R)-1-((6-(6-oxa-3-azabicyclo[3.1.1]heptan-3-yl)cinnolin-4-yl)amino)ethyl)-5-(difluoromethyl)phenol] | 0 to 40% | –
C[C@@H](Nc1cnnc2ccc(N3CC4CC(C3)O4)cc12)c1cccc(F)c1F [Example 56, 6-(6-oxa-3-azabicyclo[3.1.1]heptan-3-yl)-N-((R)-1-(2,3-difluorophenyl)ethyl)cinnolin-4-amine] | 0 to 40% | –
C[C@@H]1CN(c2ccc3nncc(N[C@H](C)c4cccc(C(F)F)c4F)c3c2)CCO1 [Example 57, N-((R)-1-(3-(difluoromethyl)-2-fluorophenyl)ethyl)-6-((R)-2-methylmorpholino)cinnolin-4-amine] | 0 to 40% | –
C[C@H]1CN(c2ccc3nncc(N[C@H](C)c4cccc(C(F)F)c4F)c3c2)CCO1 [Example 59, N-((R)-1-(3-(difluoromethyl)-2-fluorophenyl)ethyl)-6-((S)-2-methylmorpholino)cinnolin-4-amine] | 0 to 40% | –
C[C@@H](Nc1cnnc2ccc(C3=CCN(C(=O)C4COC4)CC3)cc12)c1cccc(C(F)F)c1F [Example 60, (R)-(4-(4-(1-(3-(difluoromethyl)-2-fluorophenyl)ethylamino)cinnolin-6-yl)-5,6-dihydropyridin-1(2H)-yl)(oxetan-3-yl)methanone] | 70 to 100% | –
C[C@@H](Nc1cnnc2ccc(C3=CCN(C(=O)C4CC4)CC3)cc12)c1cccc(C(F)F)c1F [Example 61, (R)-cyclopropyl(4-(4-(1-(3-(difluoromethyl)-2-fluorophenyl)ethylamino)cinnolin-6-yl)-5,6-dihydropyridin-1(2H)-yl)methanone] | 0 to 40% | –

More lines, main results first:

inhibition at 0.1 µM [1] | Compound | IC50 (EGFR kinase)
40 to 70% | C[C@@H](Nc1cnnc2ccc(N3CCN(C(=O)C4CC4)CC3)cc12)c1cccc(C(F)F)c1F [Example 62, (R)-cyclopropyl(4-(4-(1-(3-(difluoromethyl)-2-fluorophenyl)ethylamino)cinnolin-6-yl)piperazin-1-yl)methanone] | –
40 to 70% | C[C@@H](Nc1cnnc2ccc(N3CCN(C(=O)C4CCOCC4)CC3)cc12)c1cccc(C(F)F)c1F [Example 63, (R)-(4-(4-(1-(3-(difluoromethyl)-2-fluorophenyl)ethylamino)cinnolin-6-yl)piperazin-1-yl)(tetrahydro-2H-pyran-4-yl)methanone] | –
70 to 100% | C[C@@H](Nc1cnnc2ccc(N3CCN(C(=O)[C@@H]4CCOC4)CC3)cc12)c1cccc(C(F)F)c1F [Example 64, (4-(4-((R)-1-(3-(difluoromethyl)-2-fluorophenyl)ethylamino)cinnolin-6-yl)piperazin-1-yl)((R)-tetrahydrofuran-3-yl)methanone] | –
40 to 70% | C[C@@H](Nc1cnnc2ccc(N3CCN(C(=O)[C@H]4CCOC4)CC3)cc12)c1cccc(C(F)F)c1F [Example 65, (4-(4-((R)-1-(3-(difluoromethyl)-2-fluorophenyl)ethylamino)cinnolin-6-yl)piperazin-1-yl)((S)-tetrahydrofuran-3-yl)methanone] | –
40 to 70% | C[C@@H](Nc1cnnc2ccc(N3CCC(NC(=O)C4COC4)CC3)cc12)c1cccc(C(F)F)c1F [Example 69, (R)-N-(1-(4-(1-(3-(difluoromethyl)-2-fluorophenyl)ethylamino)cinnolin-6-yl)piperidin-4-yl)oxetan-3-carboxamide] | –
